Reference: ChEMBL document CHEMBL5260836, “Combating Autoimmune Diseases With Retinoic Acid Receptor-Related Orphan Receptor-γ (RORγ or RORc) Inhibitors: Hits and Misses” (J Med Chem, 2018)
Values belong to the compound of their own block, whether it stands above or below them.

How the values were obtained:
[1] = target: T1, Nuclear receptor ROR-gamma (Homo sapiens, UniProt P51449); experiment: Inhibition of human GAL4-fused RORgamma LBD transfected in HEK293T cell measured after 24 hrs by luciferase reporter assay; format: cell-based
T1 sequence (P51449 whole entry): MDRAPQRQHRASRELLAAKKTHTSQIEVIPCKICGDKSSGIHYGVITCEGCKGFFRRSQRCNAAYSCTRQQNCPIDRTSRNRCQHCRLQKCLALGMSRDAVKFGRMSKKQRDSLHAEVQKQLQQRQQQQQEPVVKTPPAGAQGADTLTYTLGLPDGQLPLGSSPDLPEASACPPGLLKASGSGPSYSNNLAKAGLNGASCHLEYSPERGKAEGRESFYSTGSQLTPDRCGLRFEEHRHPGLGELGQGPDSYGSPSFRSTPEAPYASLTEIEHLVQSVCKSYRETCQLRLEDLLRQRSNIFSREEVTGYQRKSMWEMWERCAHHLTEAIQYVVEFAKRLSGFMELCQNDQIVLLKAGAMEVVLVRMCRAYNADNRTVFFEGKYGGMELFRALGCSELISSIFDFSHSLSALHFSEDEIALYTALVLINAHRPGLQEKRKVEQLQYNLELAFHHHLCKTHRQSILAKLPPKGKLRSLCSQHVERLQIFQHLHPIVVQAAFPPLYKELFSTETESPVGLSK

[2] = Suppression of Th17 polarization in human CD4+ T cells cultured under Th17-skewing conditions measured after 4 days
[3] = target: T1, Nuclear receptor ROR-gamma; experiment: Inhibition of human RORgammat expressed in COS7 cells by luciferase assay; format: cell-based
cells [4] = conditions: Homo sapiens, PBMC
Description: Inhibition of IL-17 production in human PBMC

[5] = Inhibition of IL-17F production in human PBMC by ELISA; format: functional, cell-based
[6] = Inhibition of IL-22 production in human PBMC by ELISA; format: functional, cell-based
[7] = Inhibition of IL-17A production in human PBMC by ELISA; format: functional, cell-based
[8] = Inhibition of IL-21 production in human PBMC by ELISA; format: functional, cell-based
[9] = target: T1, Nuclear receptor ROR-gamma; experiment: Inhibition of RORgammat LBD (unknown origin) expressed in Sf21 cells assessed as fluorescence signal by TR-FRET assay
Mus musculus [10] = experiment: Anti-arthritis activity against glucose-6-phosphate isomerase-induced arthritis DBA/1 mouse model assessed as reduction in paw swelling clinical score at 1000 mg/kg, po; format: functional
cells [11] = conditions: Homo sapiens, PBMC; remark: listed apart in the source
Description: Inhibition of IL-17A secretion in human PBMC cells

[12] = Plasma clearance in rat; format: ADME
[13] = target: T1, Nuclear receptor ROR-gamma; experiment: Inverse agonist activity at human GAL4-RORgamma […] expressed in HEK293 cells measured after 24 hrs by ligand binding assay; format: cell-based
[14] = target: T1, Nuclear receptor ROR-gamma; experiment: Antagonist activity at RORgammat LBD (unknown origin) assessed as fluorescent polarization signal measured in presence of fluorescein-labeled LXR agonist T0901317 after 4 hrs by competitive binding assay
[15] = target: T1, Nuclear receptor ROR-gamma; experiment: Inverse agonist activity at GAL4-RORgammat LBD (unknown origin) expressed in HEK293 cells measured after 18 to 24 hrs by nuclear receptor assay; format: cell-based
[16] = target: T1, Nuclear receptor ROR-gamma; experiment: Inhibition of biotinylated human RORgammat by FRET assay
cells [17] = conditions: Homo sapiens, Th17
Description: Inhibition of IL-17 production in human Th17 cells

cells [18] = conditions: Homo sapiens, PBMC, 96 h
Description: Inhibition of IL17 production in human PBMC cells measured after 4 days by enzyme-linked immunosorbent assay

Homo sapiens [19] = species on record: Homo sapiens; experiment: Ex-vivo reduction in proinflammatory cytokine levels in psoriasis patient assessed as reduction in IL-17A level in skin tissue at 10 uM measured after 12 to 14 hrs by sRICA assay; format: functional; conditions: Skin of body, time 12-14 hrs
Mus musculus [20] = experiment: Anti-inflammatory activity against psoriasis mouse model assessed as reduction in epidermal thickness treated topically; format: functional
Homo sapiens [21] = species on record: Homo sapiens; experiment: Ex-vivo reduction in proinflammatory cytokine levels in psoriasis patient assessed as reduction in IL-19 level in skin tissue at 10 uM measured after 12 to 14 hrs by sRICA assay; format: functional; conditions: Skin of body, time 12-14 hrs
Homo sapiens [22] = species on record: Homo sapiens; experiment: Ex-vivo reduction in proinflammatory cytokine levels in psoriasis patient assessed as reduction in IL-17F level in skin tissue at 10 uM measured after 12 to 14 hrs by sRICA assay; format: functional; conditions: Skin of body, time 12-14 hrs
[23] = Inhibition of SRC1 coactivator recruitment in human PBMC; format: functional, cell-based
Homo sapiens [24] = species on record: Homo sapiens; experiment: Ex-vivo reduction in proinflammatory cytokine levels in psoriasis patient assessed as reduction in IL-22 level in skin tissue at 10 uM measured after 12 to 14 hrs by sRICA assay; format: functional; conditions: Skin of body, time 12-14 hrs
[25] = Inhibition of human Th17 cell differentiation; format: functional, cell-based

IC50 [5]: < 10000 nM
IC50 [6]: < 10000 nM
IC50 [7]: < 10000 nM
IC50 [8]: < 10000 nM
SMILES: O=S(=O)(c1ccccc1)N1CCC(Cn2ccc3nc(-c4cn[nH]c4)ccc32)CC1

clearance [12]: 5 mL/min/kg
SMILES: O=C(O)c1ccc(-c2nn(C(=O)c3c(Cl)cccc3C3(C(F)(F)F)CC3)c3cccnc23)c(F)c1

IC50 [13]: > 10000 nM
SMILES: O=C(O)CC1CN(Cc2ccc(-c3ccc(C(O)(C(F)(F)F)C(F)(F)F)cc3)cc2)CCN1Cc1ccncc1 (configuration not stated)

IC50 (cells [17]): 40 nM
SMILES: O=C(Nc1ccc2c(c1)CN(S(=O)(=O)c1cccc(C(F)(F)F)c1)CCC2)c1c(F)cccc1Cl

IC50 (cells [18]): 39.6 nM
SMILES: O=C(O)c1ccc(-c2nn(C(=O)c3c(Cl)cccc3C(F)(F)F)c3ccccc23)cc1

Second part, the compound before the results:

SMILES: COC(=O)[C@]12CCC(C)(C)CC1C1C(=O)C=C3[C@@]4(C)C=C(C#N)C(=O)[C@@](C)(O)[C@@H]4CC[C@@]3(C)[C@]1(C)CC2 (some centres not stated)
IC50 [1]: 115 nM
IC50 [2]: 18 nM

SMILES: CCS(=O)(=O)c1ccc(CC(=O)Nc2cc(Cl)c(C3(c4noc(-c5ccc(F)cc5)n4)CC3)c(Cl)c2)cc1
IC50 [3]: 2.1 nM
IC50 (cells [4]): 6.6 nM

SMILES: Cc1cnccc1-c1nc(-c2ccccc2)c2c(n1)[C@]1(C)C=C(C#N)C(=O)[C@H](C)[C@H]1CC2
IC50 [1]: 40 nM
IC50 [2]: 39 nM

SMILES: O=S(=O)(c1ccccc1)N1CCC(Cn2ncc3cc(-c4cn[nH]c4)ccc32)CC1
IC50 [5]: < 10000 nM
IC50 [6]: < 10000 nM
IC50 [7]: < 10000 nM
IC50 [8]: < 10000 nM

SMILES: COc1cc2c(cc1N1CCOCC1)CC(Cc1cccc(C(F)(F)F)c1)C2=O (configuration not stated)
IC50 [9]: < 500 nM

SMILES: CCS(=O)(=O)c1ccc(CNC(=O)c2cc3c(s2)C2(CCN([C@H](C)c4cnc(C(F)(F)F)nc4)CC2)O[C@@H](C)C3)nc1
inhibition in vivo at 1000 mg/kg (Mus musculus [10]): 75%
IC50 (cells [11]): 20 nM

SMILES: C[C@H]1CN(Cc2cncc(NS(=O)(=O)c3c(Cl)cc(Cl)cc3Cl)c2)CCN1C(=O)C1CCCC1
IC50 [14]: 89 nM

SMILES: Cc1ccc([C@H](NC(=O)Cc2ccc3oc([C@@H](O)c4c(C)noc4C)cc3c2)c2ccccc2)c(C)c1
IC50 [15]: 17 nM
IC50 [16]: 5 nM

SMILES: O=S(=O)(c1ccc(Cl)cc1)N1CCC(Cn2ccc3cc(-c4cn[nH]c4)ccc32)CC1
IC50 [5]: < 10000 nM
IC50 [6]: < 10000 nM
IC50 [7]: < 10000 nM
IC50 [8]: < 10000 nM

SMILES: CCc1ccc(N(CC(C)C)S(=O)(=O)c2ccc(OCC3CCOCC3)c(CO)c2)cc1 [GSK2981278]
inhibition in vivo at 10 µM (Homo sapiens [19]): > 50%
inhibition (INH) (Mus musculus [20]): 23%
inhibition in vivo at 10 µM (Homo sapiens [21]): > 50%
inhibition in vivo at 10 µM (Homo sapiens [22]): > 50%
IC50 [23]: 20 nM
inhibition in vivo at 10 µM (Homo sapiens [24]): > 50%
IC50 (cells [4]): 63 nM

SMILES: Cc1ncc(C(=O)Nc2cc(F)cc(CN3CCN(C(=O)C4CCCC4)[C@@H](C)C3)c2C)cn1
IC50 [25]: 31 nM
IC50 [3]: 97 nM
